The values below come from patent US20220002671A1, “T Cells with Improved Mitochondrial Function” (Abraham J and Phyllis Katz Cord Blood Foundation, priority 2018, published 2022).

Assay [1] concerns mitochondrial transfer from BM-MSC to UCB iTregs. In words: Mitochondrial transfer from BM-MSC into UCB iTregs, MitoTracker Red FM by confocal microscopy. In kind it is cell-based, human.
Assay [2] has the same test system. Briefly: Mitochondrial transfer from mt-GFP lentivirus transduced MSC into iTregs, flow cytometry. In kind it is cell-based, human. In general terms: Flow cytometry measures light scatter and fluorescence of single cells or particles in a stream.
The subject of assay [3] is TNT formation. To be noted: Sáenz-de-Santa-María et al., Oncotarget, 2017; cited from earlier work.
The test system of assay [4] is mitochondrial transfer from hBM-MSC to iTreg. In words: Mitochondrial transfer from BM-MSC into iTregs, MitoTracker green by flow cytometry. Conditions: Cytochalasin B 350 nM treated BM-MSC, 24 h, n=6; Mock 2208±122.1. In kind it is cell-based, human.
In assay [5] the test system is BACH2, SENP3, Foxp3 in iTreg. Briefly: iTreg Foxp3, BACH2 and SENP3 protein expression. The format is cell-based, human. To be noted: after cytochalasin B treatment.

In the case of `CC(=O)N[C@@H](CS)C(=O)O` [N-acetylcysteine], in assay [1] (200 uM added to BM-MSC+iTreg culture, 24-36 h), the “mitochondria uptake by Treg (confocal)” value is “minimally reduced”.
On to `C=C(C)[C@H]1Cc2c(ccc3c2O[C@@H]2COc4cc(OC)c(OC)cc4[C@@H]2C3=O)O1` [rotenone], for which the “transfer of mitochondria into iTregs from rotenone treated MSC” value in assay [2] (rotenone treated mt-GFP MSC platform, 72 hrs) is reported as “do not transfer”.
In the case of `C=C1[C@@H](C)[C@H]2[C@H](Cc3ccccc3)NC(=O)[C@]23[C@H](OC(C)=O)/C=C/[C@@](C)(O)C(=O)[C@@H](C)C/C=C/[C@H]3[C@@H]1O` [Cytocalasin D, Cytochalasin D], the TNT formation entry in assay [3] is recorded as “significant reduction”.
Regarding Cytochalasin B, the “mitochondrial transfer from hBM-MSC to iTreg (MitoTracker MFI)” value in assay [4] was determined as 923.8±89 MFI. Further, the “mitochondrial transfer from MSC to UCB iTregs (MitoTracker+ iTregs, confocal)” value in assay [1] (350 nM, 24 h) is recorded as “significantly blocks mitochondrial transfer”. Also, in assay [5], the “iTreg BACH2 protein expression” value was “dramatically decreased” and the “iTreg SENP3 protein expression” value is recorded as “no significant effect”.
In the case of `Nc1ncnc2c1ncn2[C@@H]1O[C@H](COP(=O)(O)CP(=O)(O)O)[C@@H](O)[C@H]1O` [Adenosine 5′-(α,(β-methylene)diphosphate, Adenosine 5′-(α,β-methylene)diphosphate], the “mitochondrial transfer from BM-MSC to UCB iTregs (mt-GFP+ iTregs)” value in assay [2] is “significantly blocks mitochondrial transfer”.
